This passage reports Activity and Time results from ChEMBL document CHEMBL3045384, “Evaluating commercially available rodenticide baits for invasive Gambian giant pouched rats (Cricetomys gambianus)” (2010).

Common to all, as to assay type: functional
Experiment [1] relates to Cricetomys gambianus. In words: Rodenticidal activity against invasive Cricetomys gambianus (Gambian giant pouched rat) assessed as proportion of bait consumed using 0.01% compound blocks bait by 7 day multiple-choice feeding trail method.
Experiment [2] relates to Cricetomys gambianus. Put plainly: Rodenticidal activity against invasive Cricetomys gambianus (Gambian giant pouched rat) assessed as mean duration to death using 0.01% compound blocks bait by 7 day multiple-choice feeding trail method.
In experiment [3] the test system is Cricetomys gambianus. Put plainly: Rodenticidal activity against invasive Cricetomys gambianus (Gambian giant pouched rat) assessed as rodent body weight using 0.01% compound blocks bait by 7 day multiple-choice feeding trail method (reference value: 1.44 kg).
In experiment [4] the test system is Cricetomys gambianus. Put plainly: Rodenticidal activity against invasive Cricetomys gambianus (Gambian giant pouched rat) assessed as rodent mortality using 0.01% compound blocks bait by 7 day multiple-choice feeding trail method.
Experiment [5] relates to Cricetomys gambianus. In words: Rodenticidal activity against invasive Cricetomys gambianus (Gambian giant pouched rat) assessed as mean bait consumed using 0.01% compound blocks bait by 7 day multiple-choice feeding trail method.
Experiment [6] deals with Cricetomys gambianus. Put plainly: Rodenticidal activity against invasive Cricetomys gambianus (Gambian giant pouched rat) assessed as proportion of bait consumed using 0.005% compound blocks bait by 7 day multiple-choice feeding trail method.
The test system of experiment [7] is Cricetomys gambianus. In words: Rodenticidal activity against invasive Cricetomys gambianus (Gambian giant pouched rat) assessed as mean bait consumed using 0.005% compound pellets bait by 7 day multiple-choice feeding trail method.
The subject of experiment [8] is Cricetomys gambianus. Put plainly: Rodenticidal activity against invasive Cricetomys gambianus (Gambian giant pouched rat) assessed as mean duration to death using 0.005% compound blocks bait by 7 day multiple-choice feeding trail method.
For experiment [9], the system named is Cricetomys gambianus. In words: Rodenticidal activity against invasive Cricetomys gambianus (Gambian giant pouched rat) assessed as proportion of bait consumed using 0.005% compound pellets bait by 7 day multiple-choice feeding trail method.
The test system of experiment [10] is Cricetomys gambianus. In words: Rodenticidal activity against invasive Cricetomys gambianus (Gambian giant pouched rat) assessed as rodent body weight using 0.005% compound pellets bait by 7 day multiple-choice feeding trail method (reference value: 1.44 kg).
Experiment [11] has as its system Cricetomys gambianus. Put plainly: Rodenticidal activity against invasive Cricetomys gambianus (Gambian giant pouched rat) assessed as rodent body weight using 0.005% compound blocks bait by 7 day multiple-choice feeding trail method (reference value: 1.44 kg).
For experiment [12], the system named is Cricetomys gambianus. In words: Rodenticidal activity against invasive Cricetomys gambianus (Gambian giant pouched rat) assessed as rodent mortality using 0.005% compound pellets bait by 7 day multiple-choice feeding trail method.
Experiment [13] relates to Cricetomys gambianus. Put plainly: Rodenticidal activity against invasive Cricetomys gambianus (Gambian giant pouched rat) assessed as rodent mortality using 0.005% compound blocks bait by 7 day multiple-choice feeding trail method.
For experiment [14], the system named is Cricetomys gambianus. Put plainly: Rodenticidal activity against invasive Cricetomys gambianus (Gambian giant pouched rat) assessed as mean bait consumed using 0.005% compound blocks bait by 7 day multiple-choice feeding trail method.
In experiment [15] the test system is Cricetomys gambianus. In words: Rodenticidal activity against invasive Cricetomys gambianus (Gambian giant pouched rat) assessed as proportion of bait consumed using 0.0005% compound pellets bait by 7 day multiple-choice feeding trail method.
In experiment [16] the test system is Cricetomys gambianus. In words: Rodenticidal activity against invasive Cricetomys gambianus (Gambian giant pouched rat) assessed as mean duration to death using 0.0005% compound pellets bait by 7 day multiple-choice feeding trail method.
The test system of experiment [17] is Cricetomys gambianus. In words: Rodenticidal activity against invasive Cricetomys gambianus (Gambian giant pouched rat) assessed as rodent body weight using 0.0005% compound pellets bait by 7 day multiple-choice feeding trail method (reference value: 1.44 kg).
Experiment [18] has as its system Cricetomys gambianus. Put plainly: Rodenticidal activity against invasive Cricetomys gambianus (Gambian giant pouched rat) assessed as rodent mortality using 0.0005% compound pellets bait by 7 day multiple-choice feeding trail method.
The test system of experiment [19] is Cricetomys gambianus. Put plainly: Rodenticidal activity against invasive Cricetomys gambianus (Gambian giant pouched rat) assessed as mean bait consumed using 0.0005% compound pellets bait by 7 day multiple-choice feeding trail method.
Experiment [20] relates to Cricetomys gambianus. In words: Rodenticidal activity against invasive Cricetomys gambianus (Gambian giant pouched rat) assessed as proportion of bait consumed using 0.0025% compound pellets bait by 7 day multiple-choice feeding trail method.
Experiment [21] has as its system Cricetomys gambianus. Put plainly: Rodenticidal activity against invasive Cricetomys gambianus (Gambian giant pouched rat) assessed as mean duration to death using 0.0025% compound pellets bait by 7 day multiple-choice feeding trail method.
Experiment [22] deals with Cricetomys gambianus. Put plainly: Rodenticidal activity against invasive Cricetomys gambianus (Gambian giant pouched rat) assessed as mean bait consumed using 0.0025% compound pellets bait by 7 day multiple-choice feeding trail method.
In experiment [23] the test system is Cricetomys gambianus. In words: Rodenticidal activity against invasive Cricetomys gambianus (Gambian giant pouched rat) assessed as rodent body weight using 0.0025% compound pellets bait by 7 day multiple-choice feeding trail method (reference value: 1.44 kg).
Experiment [24] relates to Cricetomys gambianus. Put plainly: Rodenticidal activity against invasive Cricetomys gambianus (Gambian giant pouched rat) assessed as rodent mortality using 0.0025% compound pellets bait by 7 day multiple-choice feeding trail method.

On to `CN(c1c(Br)cc(Br)cc1Br)c1c([N+](=O)[O-])cc([N+](=O)[O-])cc1C(F)(F)F` [BROMETHALIN], for which the Activity in the experiment with Cricetomys gambianus [1] was determined as 0.21%; in the experiment with Cricetomys gambianus [3], 1.55 kg; with Cricetomys gambianus [4], 20%; in the experiment with Cricetomys gambianus [5], 25.58 g. In addition, in the experiment on Cricetomys gambianus [2], the Time was 14 days.

`O=C1c2ccccc2C(=O)C1C(=O)C(c1ccccc1)c1ccccc1` [DIPHENADIONE]: the Activity is 0.3% in the experiment with Cricetomys gambianus [6]; 106.2 g in the experiment on Cricetomys gambianus [7]; 0.35% in the experiment on Cricetomys gambianus [9]; 1.47 kg in the experiment with Cricetomys gambianus [10]; 1.5 kg in the experiment on Cricetomys gambianus [11]; 0% in the experiment on Cricetomys gambianus [12]. The Activity with Cricetomys gambianus [13] was 17%; in the experiment with Cricetomys gambianus [14], 92.6 g. Further, in the experiment on Cricetomys gambianus [8], the Time is 12 days.

In the case of `O=C1c2ccccc2C(=O)C1C(=O)C(c1ccccc1)c1ccc(Cl)cc1` (centres undefined) [CHLOROPHACINONE], the Activity in the experiment with Cricetomys gambianus [15] was 0.3%; with Cricetomys gambianus [17], 1.47 kg; with Cricetomys gambianus [18] it was 50%; in the experiment with Cricetomys gambianus [19], 89.7 g. Also, in the experiment with Cricetomys gambianus [16], the Time was 11.7 days.

Consider `O=c1oc2ccccc2c(O)c1C1CC(c2ccc(-c3ccc(Br)cc3)cc2)Cc2ccccc21` (centres undefined) [BRODIFACOUM], for which the Activity with Cricetomys gambianus [20] amounted to 0.39%; in the experiment on Cricetomys gambianus [22] it was 89 g; in the experiment on Cricetomys gambianus [23] it was 1.37 kg; in the experiment on Cricetomys gambianus [24], 100%. In the experiment with Cricetomys gambianus [21], the Time came to 12.2 days.
